Values after ≈ are worked out from the molar mass of the structure shown. Residues, ends and D or L forms follow the SMILES beside them.
Assays:
P. aeruginosa PAO1 = type: cell-based, Pseudomonas aeruginosa; settings: PAO1
Protocol: (§1) Bacterial strains used in this study included Enterococcus faecium ATCC51559, Staphylococcus aureus USA300 LAC, Klebsiella pneumoniae ATCC 13883, Acinetobacter baumannii B2367-12, Pseudomonas aeruginosa PAO1, Enterobacter cloacae B2366-12 and Escherichia coli ATCC 25922, wherein the first six constituting the ESKAPE pathogens. Tryptic soy broth (TSB) for bacterial growth was obtained from BD Bioscience (Sparks, Md.).
(§2) The antibacterial activity of peptides was evaluated using a standard broth microdilution protocol as described (Wang et al. (2012) Antimicrob. Agents Chemother., 56:845-856). In brief, 5 μl of each bacterium (stored at −80° C.) were inoculated into TSB medium (2 ml) and grown overnight. A second inoculation was made in the morning by delivering 10 μl of the overnight culture to a fresh TSB medium. After 2-3 hours growth at 37° C., 225 rpm, logarithmic phase bacterial cultures (OD600≈0.5) were diluted and partitioned into a 96-well polystyrene microplate with ˜10^5 colony forming units (CFU) per well (90 μl aliquots). After treatment with 10 μl of peptide solutions at various concentrations, microplates were incubated at 37° C. overnight and read on a ChroMate® 4300 Microplate Reader at 630 nm (GMI, Ramsey, Minn.). The medium was used as a blank where no bacteria should grow.

E. cloacae B2366-12 = type: cell-based, Enterobacter cloacae; settings: B2366-12
Protocol: as §1, §2

[1] = system: human red blood cells (hRBC); type: cell-based; settings: red cells of human
Protocol: Blood was obtained from the Blood Bank of the University of Nebraska Medical Center (UNMC) and washed three times (800 g, 10 minutes) with normal saline to remove plasma. A final solution containing 2% human red blood cells (hRBC) was then prepared in normal saline and used for the assay. 90 μl of this solution were added to 10 μl of serially diluted peptide solutions and incubated at 37° C. for 1 hour. It was then centrifuged at 15,700 g for 5 minutes on an Eppendorf® bench-top centrifuge 5415D. Aliquots of the supernatant (˜80 μl) were carefully transferred to a fresh 96-well microplate (Costar, Corning, N.Y.) and absorbance was read at 545 nm to detect the amount of hemoglobin released. Percent lysis was calculated based on the extent of hemoglobin released, where 100% release is assumed in the presence of 1% TRITON™ X-100 and 0% release is assumed in saline.

A. baumannii B2367-12 = type: cell-based, Acinetobacter baumannii; settings: B2367-12
Protocol: as §1, §2

E. coli ATCC 25922 [2] = type: cell-based, Escherichia coli; settings: ATCC 25922
Protocol: as §1, §2

[3] = Cytotoxicity of soluble peptide (MTS); type: cell-based; settings: human, HaCaT cells; free peptide; read-out: 50% lethal concentration (LC50) to HaCaT cells
Protocol: In vitro spontaneously transformed keratinocytes from histologically normal human skin (HaCaT cells) from Fisher (Hampton, N.H.) (Cat # T0020001) were maintained in DMEM high glucose medium with 4 mM L-glutamine (HyClone, South Logan, Utah) and 100 U ml^−1 penicillin, 100 μg ml^−1 streptomycin (pen/strep, p/s) (Life Technologies, Carlsbad, Calif.), and 10% (v v^−1) inactivated fetal bovine serum (FBS, NyClone), DMEM with 10% FBS, p/s. Cells were grown in 5% CO2 at 37° C. and were detached from culturing dish at 100% confluency by treating with 0.025% trypsin-EDTA (NyClone), seeded (100,000 cells well^−1) in 24-well plates (Corning Life Science, Salt Lake City, Utah) and grown overnight in 200 μl of DMEM medium to reach a 70% confluency. The peptide-coated surfaces (1.0×1.0 cm) were placed in a 24-well plate DMEM with or without 10% FBS, p/s for 1 hour. Samples were taken out and 60 μl of CellTiter96® MTS were added. Plates were further incubated for another 2 hours at 37° C. Subsequently, 100 μl of the solution were placed in a clean 96-well plate to measure the absorbance at 492 nm on a ChroMate® reader (GMI). For comparison, the toxicity of the soluble peptides was also measured and they were treated in the same way as described above. The culture medium and a 0.2% SDS solution were used as negative and positive controls, respectively.

ESKAPE pathogens = type: cell-based
Protocol: as §1, §2

E. faecium ATCC51559 = type: cell-based, Enterococcus faecium; settings: ATCC51559
Protocol: as §1, §2

S. aureus USA300 LAC = type: cell-based, Staphylococcus aureus; settings: USA300
Protocol: as §1, §2

S. aureus USA300 [4] = type: cell-based, Staphylococcus aureus; settings: 12.5 μM
Protocol: Two types of experiments were conducted to evaluate the anti-biofilm activity of these peptides against S. aureus USA300 grown under a static condition for 24 hours to form established biofilms in presence of tryptic soy broth (TSB). The experiment was set up using a flat bottom, 96-well, polystyrene microtiter plates (Corning, COSTAR). In short, S. aureus USA300 (10^5 CFU/mL) in fresh TSB media was made from an exponentially growing culture. 200 μL of this bacterial culture was added to each well of the microtiter plates. The plates are then incubated at 37° C. for 24 hours to allow biofilm formation. Media was then carefully removed followed by washing with sterile 1×PBS to remove any unattached bacteria. Solution containing μL of 10× peptide solution and 180 μL of fresh TSB were added. The plates were again incubated at 37° C. for another 24 hours. To measure the extent of biofilm disruption by the peptides as a function of biofilm reduction, crystal violet staining was performed. Media was pipetted out and the wells were carefully washed with 200 μL of PBS to remove the loosely attached cells. Subsequently, 200 μL of 99% methanol was added for fixation and the plates were allowed to sit for 15 minutes. The plates were finally aspirated and dried. Lastly, staining was done with 200 μL of 1% crystal violet in water for 5 minutes. Excess stain was gently rinsed off with tap water, and plates were air-dried. Further, stains were solubilized in 200 μL of 33% glacial acetic acid followed by colorimetric measurement at 600 nm on a Chromate® microtiter plate reader. The amounts of biofilm growth with and without compound treatments were calculated.
In addition, live cell contents of the peptide acted biofilms was estimated by XTT [2,3-bis(2-methyloxy-4-nitro-5-sulfophenyl)-2H-tertazolium-5-carboxanilide]assay by following the manufacturer's instructions with modifications. A 10% XTT solution in TSB media was added to each well and the plates were again incubated for 2 hours at 37° C. Absorbance at 450 nm (only media with XTT containing wells served as the blank) was obtained using Chromate® microtiter plate reader. Percentage of biofilm reduction for the peptide was plotted assuming 100% biofilm growth is achieved on the bacterial wells without peptide treatment.

human red blood cells = assay: Hemolytic ability (Example 3); type: cell-based; settings: concentration that causes 50% hemolysis
Protocol: Hemolytic analysis of selected peptides was performed using an established protocol. Briefly, human blood cells (UNMC Blood Bank) were washed three times with phosphate buffer saline (PBS) and diluted to a 2% solution. After peptide treatment, incubation at 37° C. for one hour, and centrifugation at 13,000 rpm, aliquots of the supernatant were transferred to a fresh 96-well microplate. To assess peptide cytotoxicity, the amount of hemoglobin released was measured at 545 nm. The percent lysis was calculated by assuming 100% release when human blood cells were treated with 1% TRITON™ X-100, and 0% release when incubated with PBS buffer.

S. aureus USA300 [5] = assay: Live cell penetration experiment (FITC, confocal); type: cell-based, Staphylococcus aureus; settings: peptide and FITC 12.5 μM
Protocol: The entrance of a fluorescent dye into live bacterial cells was followed by confocal microscopy (Mishra et al. (2015) RSC Advances 5:59758-59769). In short, S. aureus USA300 was grown to the exponential phase from the overnight culture. The cells were then washed twice with fresh 1×PBS (pH 7.2) and the final cell density was adjusted to 1×10^8 CFU/mL. 1500 μL of the culture was added to the chambers of cuvettes (borosilicate cover glass systems) with equimolar concentrations of TetraF2W-RK and fluorescein isothiocyanate FITC (12.5 μM). The samples were examined with a confocal laser scanning microscope (Zeiss 710) with a series of live time pictures taken at every 5 seconds for 5 minutes and the data were processed using Zen 2010 software.

S. aureus USA300 [6] = assay: Growth inhibition in TSB media (FIG. 15A); type: cell-based, Staphylococcus aureus; settings: 3.1 μM (printed 3.1 LM), 37° C.
Protocol: FIGS. 15A and 15B show the growth inhibition (FIG. 15A) and propidium iodide-based membrane permeation (FIG. 15B) of S. aureus USA300 in TSB media by 3.1 μM of TetraF2W-RR and its single arginine variants (Table 8) at 37° C. with shaking at 100 rpm.
Fluorescence spectroscopy was also used to follow bacterial killing. In brief, μL of serially diluted 10× peptide concentrations were done in 96-well coming COSTAR microtiter plates. Propidium iodide at a fixed concentration of 20 μM per well was added to each well which was finally incubated with 88 μL of S. aureus USA300 (with a final OD600 0.1) with continuous shaking at 100 rpm with meander corner well shaking, 37° C. in a FLUOstar® Omega (BMG LABTECH Inc., NC) microplate reader. The plates were read every 5 minutes for a total duration of 2 hours with excitation and emission wavelengths at 584 nm and 620 nm, respectively.

S. aureus USA300 [7] = type: cell-based, Staphylococcus aureus
Protocol: (§3) The antimicrobial activity of peptides was evaluated using a standard broth microdilution protocol. In brief, exponential phase bacteria at 10^6 CFU were incubated with serially diluted peptides overnight for ˜20 hours at 37° C. The plates were read on a ChroMate® 4300 Microplate Reader at 630 nm (GMI, Ramsey, Minn.).

S. aureus USA300 [8] = assay: Confocal microscopy of preformed biofilms (Example 3); type: cell-based, Staphylococcus aureus
Protocol: S. aureus USA300 (10^5 CFU/mL) was made from exponentially growing bacteria. 1800 μL was added to the chamber of cuvettes (Borosilicate cover glass systems), and was incubated for 37° C., 24 hours for biofilm formation. Media was then pipetted out and chambers were washed with 1×PBS to remove non-adhered cells. To disrupt the preformed biofilms, 200 μL of 10× stocks of the peptide was added followed by 1800 μL of TSB. Control cuvettes contained water instead of peptide. The cuvettes were again incubated for another 24 hours at 37° C. Subsequently, the supernatant was pipetted out and the chambers were washed with 1×PBS. For evaluation under confocal microscope the biofilms were stained with 10 μL of LIVE/DEAD® kit (Invitrogen Molecular Probes) according to the manufacturer's instructions. The samples were examined with a confocal laser scanning microscope (Zeiss 710) and the data processed using Zen 2010 software.

E. coli ATCC 25922 [9] = type: cell-based, Escherichia coli; settings: ATCC 25922, 20 h
Protocol: as §3

CC[C@H](C)[C@H](NC(=O)[C@H](CCCNC(=N)N)NC(=O)[C@H](CCC(N)=O)NC(=O)[C@@H](NC(=O)[C@@H](NC(=O)[C@H](CCCNC(=N)N)NC(=O)[C@H](CCCCN)NC(=O)[C@@H](N)Cc1ccccc1)[C@@H](C)CC)C(C)C)C(=O)N[C@@H](CCCCN)C(=O)N[C@@H](CC(=O)O)C(=O)N[C@@H](Cc1ccccc1)C(=O)N[C@@H](CC(C)C)C(=O)N[C@@H](CCCNC(=N)N)C(=O)N[C@@H](CC(N)=O)C(=O)N[C@@H](CC(C)C)C(=O)N[C@H](C(=O)N[C@@H](CS)C(=O)O)C(C)C [FK-16Cys] (H-FKRIVQRIKDFLRNLVC-OH; N-terminus and C-terminus assumed)
MIC PA (P. aeruginosa PAO1): >50 µM
MIC ECl (E. cloacae B2366-12): 50 ± 0 µM (≈ 107 µg/mL)
50% hemolytic concentration (HL50) [1]: ~35 µM
MIC AB (A. baumannii B2367-12): 12.5 ± 0 µM (≈ 26.9 µg/mL)
MIC EC (E. coli ATCC 25922 [2]): 37.5 ± 17.6 µM (≈ 80.6 µg/mL)
CC50 at 1 hour [3]: > 100 µM
MIC range against almost all / most of the tested strains (ESKAPE pathogens): 12.5 to 50 µM
MIC EF (E. faecium ATCC51559): 12.5 ± 0 µM (≈ 26.9 µg/mL)
MIC SA (S. aureus USA300 LAC): 18 ± 7.2 µM (≈ 38.7 µg/mL)

CC(C)C[C@H](NC(=O)[C@H](Cc1c[nH]c2ccccc12)NC(=O)[C@H](Cc1c[nH]c2ccccc12)NC(=O)[C@@H](N)Cc1c[nH]c2ccccc12)C(=O)N[C@@H](CCCNC(=N)N)C(=O)N[C@@H](CCCNC(=N)N)C(=O)N[C@@H](CCCNC(=N)N)C(=O)N[C@@H](Cc1c[nH]c2ccccc12)C(N)=O [Peptide I7R, WWWLRRRW] (H-WWWLRRRW-NH2; N-terminus assumed)
killing in preformed biofilms (XTT) (S. aureus USA300 [4]): 80%
HL50 (human red blood cells): 150 µM
time to entry of FITC into bacteria after peptide treatment (S. aureus USA300 [5]): 28 s
growth inhibition of S. aureus USA300 (S. aureus USA300 [6]): almost equally effective to the WT
cell selectivity index (ratio of HL50 and MIC) (S. aureus USA300 [7]; HL50 human red blood cells / MIC S. aureus USA300): 48
S. aureus (MIC) (S. aureus USA300 [7]; USA300, 20 h): 3.1 µM
killing in 24 hour preformed biofilms (LIVE/DEAD confocal) (S. aureus USA300 [8]): the majority of cells are red
E. coli (MIC) (E. coli ATCC 25922 [9]): 6.2 µM
